The text below walks through data of PubChem BioAssay AID720570 (Broad Institute, 2013).

The source made the active and inactive calls.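 The calls were made as follows: active = cell-killing curve crosses a set limit at a concentration no more than twice the top valid dose; inconclusive = flat curve with a 30 to 70% loss, or a poor fit; inactive = signal rising instead of falling, and the rest.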

One experiment in a line: TC71 Ewing sarcoma cell killing, confirmation, luminescence, cherry-picked samples, retest (AID 720570). To be noted: TC71 Ewing sarcoma viability, CellTiter-Glo ATP, 72 h; at 21 µM (top of the series). For orientation: ATP-based viability assays read luminescence as a measure of living cells.
Consider `COc1ccc(CN(C)C[C@H]2Oc3ccc(NC(=O)CCCCCC(=O)Nc4ccccc4N)cc3CC(=O)N([C@H](C)CO)C[C@H]2C)cc1`, for which the activity change, negative = cytotoxicity was -5.04% (inactive).

The experiment is the same for the next values; noted with them: TC71 Ewing sarcoma viability, CellTiter-Glo ATP, 72 h; at 23.5 µM (top of the series).
Take `COC(=O)C[C@@H]1CC[C@@H]2[C@@H](COc3ccc(NC(=O)Nc4cccc(Cl)c4)cc3C(=O)N2C)O1`: the activity change, negative = cytotoxicity was -4.34% (inactive).
Same read-out and setting: with `O=S(=O)(c1ccc(F)cc1)N1C[C@H]2[C@@H](c3ccccc31)[C@H](CO)N2Cc1ccccc1Cl` the figure was -20.2% (inactive).
Same read-out and setting: the same measure for `COC(=O)C[C@@H]1CC[C@@H]2[C@H](COc3ccc(NC(=O)c4cccc(F)c4)cc3C(=O)N2C)O1`: 2.03% (inactive).
The same measure, in the same setting: the same measure for `N#C[C@H]1N[C@H](CO)[C@H]1c1ccc(C#Cc2ccccc2F)cc1`: -18.8% (inactive).

Staying with this experiment, now noted: TC71 Ewing sarcoma viability, CellTiter-Glo ATP, 72 h; at 26 µM (top of the series).
Regarding `Cc1sc2nc(CN3CCC(C)CC3)nc(Cl)c2c1C`, the activity change, negative = cytotoxicity was 16.2% (inactive).
On to `COc1ccc(/C=N/Nc2ccc(C(=O)O)cc2)cc1Br`, for which the activity change, negative = cytotoxicity is -12.7% (inactive).
The same measure, in the same setting: with `O=C(Nc1cccc(Oc2ccc3c(c2)C(=O)NC3=O)c1)c1cccs1` the figure was 9.53% (inactive); with `O=C(O)c1ccc2cc(-c3ccccc3)[nH]c2c1`, 10.6% (inactive); with `C=CC[n+]1c(-c2ccc(C)cc2)csc1Nc1ccc(NC(C)=O)cc1`, 0.856% (inactive).
The same measure, in the same setting: with `COc1cc(OC)cc(-c2cc3nc(C)c(CCC(=O)NCc4ccccc4)c(C)n3n2)c1` the figure was 9.58% (inactive); with `C[C@@H]1CN([C@@H](C)CO)S(=O)(=O)c2ccc(C#CCN(C)C)cc2O[C@@H]1CN(C)Cc1ccncc1`, -4.92% (inactive).
Still for that read-out and setting: with `Cc1c(Cl)cnc(NC(=O)COC(=O)c2ccc3ncsc3c2)c1Cl` the figure was 5.39% (inactive); with `O=C1Nc2ccccc2C1=Nc1ccc(Br)cc1`, -5.59% (inactive); with `O=C(NCc1ccccn1)c1ccc(CNS(=O)(=O)c2cccc(Cl)c2)cc1`, 3.71% (inactive).
On to `COC(=O)C[C@@H]1CC[C@@H]2[C@@H](COc3ccc(NC(=O)Cc4cccs4)cc3C(=O)N2C)O1`, for which the activity change, negative = cytotoxicity was 14.1% (inactive).
As for `O=C(Nc1nc(-c2ccc(F)c(F)c2)cs1)c1ccc(OCC2CCCO2)cc1` (stereo not given), the activity change, negative = cytotoxicity is 1.49% (inactive).
On to `COc1ccccc1NS(=O)(=O)c1cc(NC(=O)c2cc3ccccc3oc2=O)ccc1C`, for which the activity change, negative = cytotoxicity was 1.31% (inactive).
With `COc1cc(/C=N/NS(=O)(=O)c2ccc(C)cc2)ccc1OCc1cccc(C(=O)O)c1`, the activity change, negative = cytotoxicity is -3.76% (inactive).
`CO[C@H]1CN(C)C(=O)c2ccc(NC(=O)c3ccc(-c4ccccc4)cc3)cc2OC[C@H](C)NC[C@H]1C`: the activity change, negative = cytotoxicity was 7.36% (inactive).
Take `Cc1nc2cc(-c3ccc(Cl)cc3)nn2c(C)c1CCC(=O)NC(C)c1ccc2c(c1)OCCO2` (stereo not given): the activity change, negative = cytotoxicity is 14.2% (inactive).
On the same count and under the same terms, with `O=C(O)c1ccc(N/N=C/c2ccc(OC(=O)c3cccc(Cl)c3)cc2)cc1` the figure was -1.51% (inactive); with `COC(=O)C[C@H]1C=C[C@@H](NC(=O)Nc2ccc(C(F)(F)F)cc2)[C@H](CO)O1`, 9.61% (inactive).
The same measure, in the same setting: with `COc1ccc(-c2sc3ccccc3c2-c2ccc(OCCN3CCCCC3)cc2)cc1` the figure was 12.2% (inactive); with `N#Cc1cccc(-c2ccc(C3[C@@H]4CN(C(=O)Cc5ccncc5)C[C@H]3N4)cc2)c1` (stereo not given in full), 0.809% (inactive); with `O=c1cc(CN2CCN(Cc3ccccc3)CC2)c2ccc(O)c(O)c2o1`, -9.02% (inactive).
Still for that read-out and setting: with `Cc1occc1-c1n[nH]c(=S)n1C` the figure was 0.805% (inactive).
As for `CO[C@H]1CN(C)C(=O)c2cc(NC(=O)c3ccc(Oc4ccccc4)cc3)ccc2OC[C@H](C)NC[C@@H]1C`, the activity change, negative = cytotoxicity is -22.7% (inactive).
`CCc1ccc(/C=C2\SC(=S)N(CCCC(=O)Nc3cc(C)on3)C2=O)cc1`: the activity change, negative = cytotoxicity is 20.2% (inactive).
On the same count and under the same terms, the same measure for `O=C(NCCc1ccccc1)c1ccccc1NC(=O)C1CCCO1` (stereo not given): -0.496% (inactive); for `Cc1cc(C)cc(OCC(=O)OCC(=O)Nc2cc(S(=O)(=O)N3CCOCC3)ccc2C)c1`: 5.46% (inactive).
The same measure, in the same setting: the same measure for `COc1ccc(N=C(NN)c2ccc3ccccc3n2)cc1`: 4.27% (inactive).
Still for that read-out and setting: with `Cc1ccsc1C(=O)OCC(=O)NCCC1=CCCCC1` the figure was 9.59% (inactive); with `CCCNC(=O)[C@@H]1[C@@H](CO)[C@@H]2Cn3c(ccc(-c4ccccc4)c3=O)[C@H]1N2C(=O)CC`, 0.956% (inactive).
For the compound `Cc1ccc(NC(=O)CCN2CCCCC2)cc1`, the activity change, negative = cytotoxicity was 3.68% (inactive).
The same measure, in the same setting: the same measure for `O=C1C(=O)N(Cc2cccs2)c2ccccc21`: 17.4% (inactive).
For the compound `COc1ccccc1CNC(=O)C[C@@H]1CC[C@H]2[C@@H](COC[C@H](O)CN2C(=O)Nc2ccc(C(F)(F)F)cc2)O1`, the activity change, negative = cytotoxicity was -18.3% (inactive).
Same read-out and setting: the same measure for `C[C@@H]1CN([C@H](C)CO)C(=O)c2cc(NC(=O)Nc3ccccc3)ccc2O[C@@H]1CN(C)Cc1ccc(C(=O)Nc2ccccc2N)cc1`: -33.9% (inactive); for `Cc1ccsc1/C=N/Nc1ccc(C(=O)O)cc1`: -11.1% (inactive).
As to `COc1ccc(C=NNc2nc3ccccc3s2)cc1`, the activity change, negative = cytotoxicity is -1.49% (inactive).
For the compound `COc1ccc(Cl)cc1S(=O)(=O)Nc1ccc2c(c1)n(C)c(=O)n2C`, the activity change, negative = cytotoxicity is -4.55% (inactive).
Same read-out and setting: with `O=C(NC(=O)c1ccccc1)Nc1ccccc1` the figure was 10.6% (inactive).
Same read-out and setting: the same measure for `CN(C)c1ccc(/C=N/Nc2nc3ccccc3o2)cc1`: 1.68% (inactive).
Still for that read-out and setting: the same measure for `S=C(NCCN1CCOCC1)Nc1ccccc1Cl`: 11.4% (inactive); for `CC(=O)c1ccc(N=C2C(=O)Nc3ccccc32)cc1`: -7.15% (inactive); for `c1cncc(-c2ccc([C@@H]3[C@H]4CNC[C@@H]3N4CC3CCOCC3)cc2)c1`: 5.7% (inactive).
For the compound `C[C@@H]1CN([C@@H](C)CO)S(=O)(=O)c2ccc(C#Cc3ccncc3)cc2O[C@H]1CN(C)C(=O)C1CCOCC1`, the activity change, negative = cytotoxicity is -5.87% (inactive).
Turning to `C/C(=N\Nc1cccc2cccnc12)c1ccccn1`, the activity change, negative = cytotoxicity was 3.52% (inactive).
Still for that read-out and setting: the same measure for `COc1ccc(C(=O)OCC(=O)Nc2ccc(Cl)c(C(F)(F)F)c2)c(OC)c1OC`: 3.2% (inactive); for `Cc1ccc2oc(/N=C(\N)NC(=O)C(C)(C)C)nc2c1`: 2.46% (inactive).
On the same count and under the same terms, the same measure for `COC(=O)C[C@@H]1CC[C@@H]2[C@H](COc3ccc(NC(=O)c4cc(F)cc(F)c4)cc3C(=O)N2C)O1`: -5.96% (inactive); for `O=C(O)c1ccc(N/N=C/c2cc(Br)cs2)cc1`: 25.7% (inactive); for `O=C1Nc2ccccc2C1=Nc1ccccc1-c1ccccc1`: 11.4% (inactive).
As to `O=C(CCCN1C(=O)S/C(=C\c2ccccc2)C1=O)NNC(=O)c1ccccc1O`, the activity change, negative = cytotoxicity was 5.39% (inactive).
The same measure, in the same setting: the same measure for `O=C(Nc1ccc(OC(=O)N2CCCCC2)cc1)N1CCOCC1`: 2.31% (inactive).
Still for that read-out and setting: with `CCCn1c(C)cc(C(=O)CN2C(=O)c3ccccc3S2(=O)=O)c1C` the figure was 5.44% (inactive); with `Nc1ccc(Oc2cccc(Oc3ccc(N)cc3)c2)cc1`, -7.72% (inactive).
Still for that read-out and setting: the same measure for `COC(=O)C[C@H]1CC[C@H]2[C@@H](COc3ccc(NC(=O)Nc4cccc(Cl)c4)cc3C(=O)N2C)O1`: -10.7% (inactive).
In the case of `CC(=O)c1ccc(N(C(=O)Cn2nnc3ccccc32)C(C(=O)NCc2ccccc2)c2ccccn2)cc1` (stereo not given), the activity change, negative = cytotoxicity is 9.64% (inactive).
For the compound `Cc1c(-c2nc(-c3ccc(C(C)(C)C)cc3)no2)n(C)oc1=O`, the activity change, negative = cytotoxicity is -0.627% (inactive).
On the same count and under the same terms, with `CC(C)NC(=O)N(C)C[C@@H]1Oc2cc(C#Cc3ccc(F)cc3)ccc2S(=O)(=O)N([C@H](C)CO)C[C@H]1C` the figure was 4.97% (inactive).
On the same count and under the same terms, with `COc1ccc(/C=C2/SC(=S)N(CCCC(=O)Nc3ccccc3C(=O)O)C2=O)cc1` the figure was 15% (inactive); with `COCCCNc1ccn2nc(-c3ccccc3)cc2n1`, -3.56% (inactive).
On the same count and under the same terms, with `C[C@@H]1CN([C@H](C)CO)S(=O)(=O)c2ccc(C#CC3CC3)cc2O[C@@H]1CN(C)Cc1ccccc1F` the figure was -4.35% (inactive).
Turning to `CC(C)(C)c1ccc(/C=N/Nc2ccc(C(=O)O)cc2)cc1`, the activity change, negative = cytotoxicity is 1.96% (inactive).
For the compound `O=C(C[C@@H]1CC[C@@H]2[C@H](COC[C@@H](O)CN2S(=O)(=O)c2ccc(F)cc2)O1)NCc1ccc(Cl)c(Cl)c1`, the activity change, negative = cytotoxicity was -10.7% (inactive).
Still for that read-out and setting: the same measure for `Cc1ccc(-c2ccc3c(c2)O[C@@H](CN(C)C(=O)Nc2ccc(F)cc2)[C@H](C)CN([C@@H](C)CO)S3(=O)=O)cc1`: -12.5% (inactive).
The same measure, in the same setting: with `Cc1noc(C)c1NC(=O)Nc1ccc2c(c1)CC(=O)N([C@H](C)CO)C[C@@H](C)[C@@H](CN(C)Cc1ccc(Cl)c(Cl)c1)O2` the figure was 0.509% (inactive).
On the same count and under the same terms, the same measure for `COC(=O)c1cccc(NC(=O)NC(=O)c2ccc(Cl)cc2)c1`: -16.8% (inactive); for `C=CCOc1ccccc1C(=O)/C=C1/C(=O)Nc2ccccc21`: -30.1% (inactive).
